Reference: ChEMBL document CHEMBL4196029, “New MD2 inhibitors derived from curcumin with improved anti-inflammatory activity” (Eur J Med Chem, 2018)
Active and inactive are the calls of the source. The rule behind the calls is not given here.

Key:
[1] = Chemical stability in pH 7.4 phosphate buffer at 20 uM measured at 5 mins time intervals for 25 mins by UV absorbance spectroscopic method; format: physicochemical; settings: pH 7.4, 25 min
Peritoneal macrophage [2] = assay: Anti-inflammatory activity in C57BL/6 mouse primary peritoneal macrophages assessed as inhibition of LPS-induced IL-6 secretion at 10 uM preincubated for 30 mins followed by LPS addition measured after 24 hrs by ELISA relative to control; format: functional; settings: C57BL/6, Peritoneal macrophage
Peritoneal macrophage [3] = assay: Anti-inflammatory activity in C57BL/6 mouse primary peritoneal macrophages assessed as inhibition of LPS-induced TNFalpha secretion at 10 uM preincubated for 30 mins followed by LPS addition measured after 24 hrs by ELISA relative to control; format: functional; settings: C57BL/6, Peritoneal macrophage
Peritoneal macrophage [4] = assay: Anti-inflammatory activity in C57BL/6 mouse primary peritoneal macrophages assessed as inhibition of LPS-induced IL-6 secretion at 1 to 10 uM preincubated for 30 mins followed by LPS addition measured after 24 hrs by ELISA; format: functional, cell-based
Peritoneal macrophage [5] = assay: Anti-inflammatory activity in C57BL/6 mouse primary peritoneal macrophages assessed as inhibition of LPS-induced TNFalpha secretion at 1 to 10 uM preincubated for 30 mins followed by LPS addition measured after 24 hrs by ELISA; format: functional, cell-based
Peritoneal macrophage [6] = assay: Anti-inflammatory activity in C57BL/6 mouse primary peritoneal macrophages assessed as inhibition of LPS-induced IL-6 secretion at 2.5 uM preincubated for 30 mins followed by LPS addition measured after 24 hrs by ELISA relative to control; format: functional; settings: C57BL/6, Peritoneal macrophage
Peritoneal macrophage [7] = assay: Anti-inflammatory activity in C57BL/6 mouse primary peritoneal macrophages assessed as inhibition of LPS-induced TNFalpha secretion at 5 uM preincubated for 30 mins followed by LPS addition measured after 24 hrs by ELISA relative to control; format: functional; settings: C57BL/6, Peritoneal macrophage
Peritoneal macrophage [8] = assay: Inhibition of LPS-induced TNFalpha mRNA expression in C57BL/6 mouse primary peritoneal macrophages at 10 uM preincubated for 30 mins followed by LPS addition measured after 24 hrs by qRT-PCR analysis; format: functional, cell-based
Peritoneal macrophage [9] = assay: Inhibition of LPS-induced COX2 mRNA expression in C57BL/6 mouse primary peritoneal macrophages at 10 uM preincubated for 30 mins followed by LPS addition measured after 24 hrs by qRT-PCR analysis; format: functional, cell-based
Rattus norvegicus [10] = assay: (§1) Anti-inflammatory activity in Sprague-Dawley rat model of LPS-induced acute lung injury assessed as reduction in leukocytic extravasation in lungs by measuring number of cells in BALF at 20 mg/kg, po administered daily for 1 week followed by LPS addition at 30 mins post last dose measured after 6 hrs by Wright-Giemsa staining based light microscopic assay; format: functional, organism-based
Rattus norvegicus [11] = assay: as §1, with “neutrophil” for “leukocytic”, “tissue myeloperoxidase activity” for “number of cells in BALF”, “spectrophotometric method” for “Wright-Giemsa staining based light microscopic assay”; format: functional; parameters: scale not given: the % may be the effect or the level left
Rattus norvegicus [12] = assay: as §1, with “macrophage mobilization to” for “leukocytic extravasation in”, “tissue content” for “number”, “CD68” for “cells in BALF”, “DAB” for “Wright-Giemsa”, “method” for “assay”; format: functional, organism-based
Rattus norvegicus [13] = assay: Anti-inflammatory activity in Sprague-Dawley rat model of LPS-induced acute lung injury assessed as reduction in IL-6 mRNA level in lungs at 20 mg/kg, po administered daily for 1 week followed by LPS addition at 30 mins post last dose measured after 6 hrs by qRT-PCR method; format: functional, organism-based
Rattus norvegicus [14] = assay: Anti-inflammatory activity in Sprague-Dawley rat model of LPS-induced acute lung injury assessed as reduction in MCP1 mRNA level in lungs at 20 mg/kg, po administered daily for 1 week followed by LPS addition at 30 mins post last dose measured after 6 hrs by qRT-PCR method; format: functional, organism-based
Mus musculus = assay: Anti-inflammatory activity in C57BL/6 mouse model of LPS-induced sepsis assessed as survival at 10 mg/kg, iv administered 15 mins prior to LPS treatment measured for 7 days (reference value: 10 to 30%); format: functional; settings: C57BL/6, iv
[15] = target: Mitogen-activated protein kinase 1 (Homo sapiens) (UniProt P28482); assay: Inhibition of recombinant human full length N-terminal GST-tagged ERK2 (1 to 360 end residues) expressed in Escherichia coli at 10 uM after 1 hr by caliper mobility shift assay relative to control
[16] = target: Mitogen-activated protein kinase 1 (Homo sapiens) (UniProt P28482); assay: Inhibition of recombinant human full length N-terminal GST-tagged ERK2 (1 to 360 end residues) expressed in Escherichia coli at 1 uM after 1 hr by caliper mobility shift assay relative to control
[17] = target: Mitogen-activated protein kinase 1 (Homo sapiens) (UniProt P28482); assay: Inhibition of recombinant human full length N-terminal GST-tagged ERK2 (1 to 360 end residues) expressed in Escherichia coli at 0.1 uM after 1 hr by caliper mobility shift assay relative to control
[18] = target: Interleukin-1 receptor-associated kinase 1 (Homo sapiens) (UniProt P51617); assay: Inhibition of recombinant human N-terminal GST-tagged IRAK1 (194 to 712 residues) expressed in baculovirus expression system at 10 uM after 1 hr by caliper mobility shift assay relative to control
[19] = target: Interleukin-1 receptor-associated kinase 1 (Homo sapiens) (UniProt P51617); assay: Inhibition of recombinant human N-terminal GST-tagged IRAK1 (194 to 712 residues) expressed in baculovirus expression system at 1 uM after 1 hr by caliper mobility shift assay relative to control
[20] = target: T1, Inhibitor of nuclear factor kappa-B kinase subunit beta (Homo sapiens) (UniProt O14920); assay: Inhibition of recombinant human N-terminal His-tagged IKKbeta (1 to 662 residues) expressed in baculovirus expression system at 10 uM after 1 hr by caliper mobility shift assay relative to control
T1 sequence (whole entry): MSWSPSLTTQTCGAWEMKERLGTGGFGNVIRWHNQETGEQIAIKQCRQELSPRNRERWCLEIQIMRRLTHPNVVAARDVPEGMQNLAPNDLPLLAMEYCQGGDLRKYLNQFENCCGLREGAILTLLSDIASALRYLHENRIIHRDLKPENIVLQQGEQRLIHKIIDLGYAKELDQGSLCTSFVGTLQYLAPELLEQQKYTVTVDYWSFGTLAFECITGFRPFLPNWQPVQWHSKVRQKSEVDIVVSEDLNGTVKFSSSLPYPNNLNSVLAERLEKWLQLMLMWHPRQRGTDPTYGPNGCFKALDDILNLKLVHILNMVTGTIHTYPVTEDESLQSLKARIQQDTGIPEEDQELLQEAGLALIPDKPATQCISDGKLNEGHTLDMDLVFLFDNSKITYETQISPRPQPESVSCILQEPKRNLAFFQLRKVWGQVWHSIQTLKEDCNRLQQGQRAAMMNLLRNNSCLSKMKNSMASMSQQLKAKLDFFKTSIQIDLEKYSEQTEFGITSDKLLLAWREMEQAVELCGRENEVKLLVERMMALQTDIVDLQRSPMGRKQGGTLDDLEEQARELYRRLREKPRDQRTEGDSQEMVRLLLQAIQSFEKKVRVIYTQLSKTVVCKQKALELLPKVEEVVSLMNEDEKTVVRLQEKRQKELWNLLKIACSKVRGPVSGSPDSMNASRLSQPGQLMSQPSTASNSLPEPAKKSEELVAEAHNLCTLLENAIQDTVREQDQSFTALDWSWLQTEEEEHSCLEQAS

[21] = target: T1, Inhibitor of nuclear factor kappa-B kinase subunit beta (Homo sapiens); assay: Inhibition of recombinant human N-terminal His-tagged IKKbeta (1 to 662 residues) expressed in baculovirus expression system at 0.1 uM after 1 hr by caliper mobility shift assay relative to control

Chain of Mitogen-activated protein kinase 1 (Homo sapiens) (P28482 whole entry, the tested form may be a part): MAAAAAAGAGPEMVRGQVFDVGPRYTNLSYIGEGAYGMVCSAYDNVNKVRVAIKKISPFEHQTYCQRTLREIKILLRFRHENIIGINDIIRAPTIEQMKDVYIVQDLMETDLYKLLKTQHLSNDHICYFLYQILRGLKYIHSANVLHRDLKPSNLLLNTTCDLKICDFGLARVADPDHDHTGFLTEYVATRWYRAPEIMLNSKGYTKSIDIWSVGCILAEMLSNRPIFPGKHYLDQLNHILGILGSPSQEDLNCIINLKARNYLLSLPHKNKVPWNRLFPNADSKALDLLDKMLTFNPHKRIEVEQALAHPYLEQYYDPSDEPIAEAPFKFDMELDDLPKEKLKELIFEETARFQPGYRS
Chain of Interleukin-1 receptor-associated kinase 1 (Homo sapiens) (P51617 whole entry, looked up, the tested form may be a part): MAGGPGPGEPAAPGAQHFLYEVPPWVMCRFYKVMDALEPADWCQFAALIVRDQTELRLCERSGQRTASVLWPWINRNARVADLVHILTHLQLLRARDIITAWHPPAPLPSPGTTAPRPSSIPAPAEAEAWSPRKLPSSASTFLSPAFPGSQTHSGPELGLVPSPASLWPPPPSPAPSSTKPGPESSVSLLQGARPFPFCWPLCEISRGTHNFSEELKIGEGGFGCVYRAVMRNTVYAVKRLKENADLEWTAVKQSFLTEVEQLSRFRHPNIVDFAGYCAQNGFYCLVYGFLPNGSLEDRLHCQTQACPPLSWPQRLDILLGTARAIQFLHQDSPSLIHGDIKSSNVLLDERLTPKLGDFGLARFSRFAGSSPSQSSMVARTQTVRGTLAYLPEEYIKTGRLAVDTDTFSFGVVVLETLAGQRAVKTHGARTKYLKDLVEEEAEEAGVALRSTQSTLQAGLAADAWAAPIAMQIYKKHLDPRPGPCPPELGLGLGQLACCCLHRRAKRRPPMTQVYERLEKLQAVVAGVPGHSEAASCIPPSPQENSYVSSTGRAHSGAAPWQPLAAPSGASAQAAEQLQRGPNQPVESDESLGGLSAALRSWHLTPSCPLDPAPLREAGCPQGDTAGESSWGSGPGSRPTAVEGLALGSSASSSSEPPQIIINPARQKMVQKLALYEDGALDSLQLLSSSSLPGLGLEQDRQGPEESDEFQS

Structure (SMILES) | Stability [1] | inhibition at 10 µM (Peritoneal macrophage [2]) [%] | inhibition at 10 µM (Peritoneal macrophage [3]) [%] | inhibition (Peritoneal macrophage [4]) | inhibition (Peritoneal macrophage [5]) | inhibition at 2.5 µM (Peritoneal macrophage [6]) [%] | inhibition at 5 µM (Peritoneal macrophage [7]) [%] | inhibition (Peritoneal macrophage [8]) | inhibition (Peritoneal macrophage [9]) | Activity (Rattus norvegicus [10]) | Activity (Rattus norvegicus [11]) [%] | Activity (Rattus norvegicus [12]) | Activity (Rattus norvegicus [13]) | Activity (Rattus norvegicus [14]) | survival at 10 mg/kg (Mus musculus) [%] | inhibition [15] [%] | inhibition [16] [%] | inhibition [17] [%] | inhibition [18] [%] | inhibition [19] [%] | also measured
COc1cc(/C=C2\COC/C(=C\c3cc(OC)c(OC)c(OC)c3)C2=O)cc(OC)c1OC | Stable | > 90 | > 90 | Active | Active | > 50 | > 50 | Active | Active | Active | 40 | Active | Active | Active | 70 | 7.4 | 10.4 | 21.3 | 3.6 | 8.7 | inhibition [20]: 7.9%; inhibition [21]: 15.7%
COc1cc(/C=C2\CN(C)C/C(=C\c3cc(OC)c(OC)c(OC)c3)C2=O)cc(OC)c1OC | Stable | > 90 | > 90 | Active | Active | > 50 | > 50 | Active | Active | Active | 40 | Active | Active | Active | 90 | 8.7 | 13.3 | 11.7 | 0.5 | 8.7 | inhibition [20]: 12.8%; inhibition [21]: 21.1%
